PubChem BioAssay AID463199 (Broad Institute, 2010)
Calls of active or inactive are those of the source.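 How the source made its calls: active means AC50, the dose giving half-maximal effect, exceeds a fixed cutoff for a compound that rescues yeast growth under heat; inactive means the rest, inconclusive results apart.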

Test system: S. cerevisiae Burl-1 ts mutant growth, BacTiter-Glo, 38.5C 24 h
Assay: growth induction of Burl-1 ts yeast mutant, dose response, counter-screen for SUMOylation pathway inhibitor project, whole organism, S. cerevisiae, luminescence (AID 463199)

Row | SMILES | AC50
1 | Cc1ccc(C(=O)NCCCN2CCOCC2)cc1 | > 42 µM (inactive)
2 | Cc1ccccc1P(=O)(CO)c1ccccc1C | > 42 µM (inactive)
3 | O=C(COc1ccc([N+](=O)[O-])cc1)Nc1ccc(C(=O)NCc2cccnc2)cc1 | > 42 µM (inactive)
4 | Cc1cc(C)n(-c2ccc(C(=O)C(C#N)c3nc4ccccc4n3C)cc2)n1 (stereo not given) | > 42 µM (inactive)
5 | CCOC(=O)c1ccc(CNC(=O)Cn2nnc(-c3ccc(C)cc3)n2)o1 | > 42 µM (inactive)
6 | O=[N+]([O-])c1ccccc1CN1CC=C(c2ccc(F)cc2)CC1 | > 42 µM (inactive)
7 | CCOC(=O)c1cnc2c(C)c(Cl)ccc2c1N1CCOCC1 | > 42 µM (inactive)
8 | COc1ccc(CC(=O)NCCN2CCOCC2)cc1 | > 42 µM (inactive)
9 | COc1cc2c(cc1OC)C(c1ccc(SC)cc1)CC(=O)N2 (stereo not given) | > 42 µM (inactive)
10 | CCOc1ccccc1N(C(=O)c1snc(C(N)=O)c1N)C(CC)C(=O)NC1CCCC1 (stereo not given) | > 42 µM (inactive)
11 | COc1ccc(C2C(C(=O)Nc3cc(OC)c(OC)c(OC)c3)c3ccccc3C(=O)N2C)cc1 (stereo not given) | > 42 µM (inactive)
12 | FC(F)(F)c1nc2ccccc2n2c(-c3ccc(Cl)cc3Cl)nnc12 | > 42 µM (inactive)
13 | CCOC(=O)c1ccc(NC(=O)c2c(NC(=O)CCC(=O)O)sc3c2CCCCC3)cc1 | > 42 µM (inactive)
14 | Clc1ccccc1C(c1ccccc1)(c1ccccc1)n1ccnc1 | > 42 µM (inactive)
15 | Clc1ccc(CONc2ncnc3nonc23)c(Cl)c1 | 9.28 µM
16 | COc1ccc(NC(=S)NC(=O)C2CCC2)cc1 | > 42 µM (inactive)
17 | O=C(c1ccc(CS(=O)(=O)c2ccccc2)o1)N1CCOCC1 | > 42 µM (inactive)
18 | Nc1cc(-c2ccc(Cl)cc2)nn1S(=O)(=O)c1ccc(Cl)cc1 | > 42 µM (inactive)
19 | COc1ccc(-c2csc(NC(=O)CCS(=O)(=O)c3ccccc3)n2)c(OC)c1 | > 42 µM (inactive)
20 | CCC12CN3CCN(CC(C3)/C1=N/NC(=O)c1ccncc1)C2 | > 42 µM (inactive)
21 | O=C(CCCC(=O)N/N=C/c1ccccc1C(=O)O)N/N=C/c1ccccc1C(=O)O | > 42 µM (inactive)
22 | CN(C(=O)COC(=O)c1cc(-c2ccc(Cl)s2)nc2ccccc12)C1CCS(=O)(=O)C1 (stereo not given) | > 42 µM (inactive)
23 | CC1=NC2(CCCc3c2no[n+]3[O-])N(O)C1(C)C (stereo not given) | > 42 µM (inactive)
24 | Cc1c(NC(C)c2cc(Cl)ccc2O)c(=O)n(-c2ccccc2)n1C (stereo not given) | > 42 µM (inactive)
25 | CC(=O)Nc1cccc(C(=O)OCC(=O)NCc2ccc(F)cc2)c1 | > 42 µM (inactive)

Row | SMILES | AC50
26 | Oc1c(Br)cc(Cl)cc1C=Nc1ccccc1Br | > 42 µM (inactive)
27 | N/C(Cn1cncn1)=N\NC(=O)c1ccc(Cl)cc1Cl | > 42 µM (inactive)
28 | c1ccc(-c2nc(NCc3ccco3)c3ccccc3n2)nc1 | > 42 µM (inactive)
29 | CC(=O)Nc1nn(C)c2nc3ccc(C)cc3cc12 | > 42 µM (inactive)
30 | Cc1c(Cl)c([N+](=O)[O-])nn1CC(=O)NC12CC3CC(CC(C3)C1)C2 | > 42 µM (inactive)
31 | O=C(c1ccco1)N1CCN(C2CC(=O)N(c3ccc(F)c(Cl)c3)C2=O)CC1 (stereo not given) | > 42 µM (inactive)
32 | CCCOc1ccc(C(=O)NCc2ccco2)cc1 | > 42 µM (inactive)
33 | O=C(NNC(=O)C12CC3CC(CC(C3)C1)C2)c1ccccn1 | > 42 µM (inactive)
34 | CN(C(=O)c1cncc(Br)c1)C1C2CC3CC(C2)CC1C3 (stereo not given) | 8.94 µM
35 | CCCN(CC1CC1)C(=O)COc1ccccc1C(=O)NCc1ccccc1 | > 42 µM (inactive)
36 | Cc1cccc(C(=O)NCC(=O)N2CCN(c3ccc(Cl)cc3)CC2)c1 | > 42 µM (inactive)
37 | Cc1nnc(SCC(=O)NCc2ccccc2Cl)[nH]c1=O | > 42 µM (inactive)
38 | COc1ccc(NC(=O)Cn2c(=O)cnc3ccccc32)cc1S(=O)(=O)N1CCCCC1 | > 42 µM (inactive)
39 | COc1cc(-c2nnc(SCC#CCO)o2)cc(OC)c1OC | > 42 µM (inactive)
40 | O=C(CCSc1nnnn1-c1ccccc1)N1CCOCC1 | > 42 µM (inactive)
41 | CCN(CC)S(=O)(=O)c1ccc(N2CCCC2)c(C(=O)OCC(=O)Nc2cc(C)on2)c1 | > 42 µM (inactive)
42 | COc1ccccc1NC(NC(=O)c1ccco1)C(=O)c1ccccc1 (stereo not given) | > 42 µM (inactive)
43 | Cc1cc(C)n2c(SCC(C)C)nnc2n1 | > 42 µM (inactive)
44 | COC(=O)Oc1ccc(/C=N/NS(=O)(=O)c2ccccc2)cc1OC | > 42 µM (inactive)
45 | CC1(OC(=O)CCc2ccccc2)C(=O)C=C2C=C(c3ccc(C#N)cc3)N(C3CCCC3)C=C2C1=O (stereo not given) | > 42 µM (inactive)
46 | O=C(c1cc2c(ccc3ccccc32)oc1=O)N1CCCC1 | > 42 µM (inactive)
47 | Cc1ccc(-n2c(SCC(=O)N(C)C3CCS(=O)(=O)C3)nc3ccccc3c2=O)cc1 (stereo not given) | > 42 µM (inactive)
48 | O=C1CCC(/C=C/c2ccccc2)=NN1Cc1ccc(Cl)c(Cl)c1 | > 42 µM (inactive)
49 | COc1ccc(CN(C)S(=O)(=O)c2nnc(NC(=O)c3ccc(C)cc3)s2)cc1OC | > 42 µM (inactive)
50 | CS(=O)(=O)N(CC(=O)NCCSCc1ccccc1)c1ccc2c(c1)OCO2 | > 42 µM (inactive)

Row | SMILES | AC50
51 | Cc1ccc(C(=O)N/C(=C/c2ccccc2)C(=O)NCC2CCCO2)cc1 (stereo not given) | > 21 µM (inactive)
52 | Cc1ccc(C)c(NC(=O)COC(=O)c2ccc3c(c2)OCO3)c1 | > 42 µM (inactive)
53 | CNC(=O)Nc1cc(NC(=O)NC)cc(C(F)(F)F)c1 | > 42 µM (inactive)
54 | Cc1cccc2nc3ccccc3cc12 | > 42 µM (inactive)
55 | CCC(=O)Nc1nc(CC(=O)Nc2ccccc2OC)cs1 | > 42 µM (inactive)
56 | COC(=O)c1[nH]c2cc(C)ccc2c1NC(=O)CN1CCN(c2ccccc2OC)CC1 | > 21 µM (inactive)
57 | CC1C(=O)CC(c2ccccc2)NC1c1ccccc1 (stereo not given) | > 42 µM (inactive)
58 | Cc1ccc(NS(=O)(=O)c2cc(C(=O)Nc3cccc([N+](=O)[O-])c3)ccc2C)cc1 | > 42 µM (inactive)
59 | COc1ccc(/C=N/NC(=O)CCC(=O)Nc2ccccc2)cc1OC | > 42 µM (inactive)
60 | Cc1cccc(N2CCN(CCCNC(=O)c3ccc(NC(=O)C4=CSCCO4)cc3)CC2C)c1 (stereo not given) | > 42 µM (inactive)
61 | COCC(=O)NNC(=O)c1ccccc1OC | > 42 µM (inactive)
62 | COc1ccc(Nc2oc(-c3cccs3)nc2C#N)cc1 | > 42 µM (inactive)
63 | CCOC(=O)N1CCC(NS(=O)(=O)c2ccc(C)c(Cl)c2)CC1 | > 42 µM (inactive)
64 | COc1ccccc1NC(=O)c1ccc(-n2ccnc2)c([N+](=O)[O-])c1 | > 42 µM (inactive)
65 | NS(=O)(=O)c1cccc(NC(=O)CSc2nnnn2-c2ccccc2)c1 | > 42 µM (inactive)
66 | COc1ccc(OC)c(Cc2nnc(CCC(=O)NCc3ccsc3)o2)c1 | > 42 µM (inactive)
67 | c1ccc(C(c2ccccc2)N2CCN(C(c3ccccn3)c3nnnn3C3CCCC3)CC2)cc1 (stereo not given) | > 42 µM (inactive)
68 | COc1cc(/C=C2\NC(=S)N(C)C2=O)ccc1OCc1cccc(F)c1 | > 42 µM (inactive)
69 | Cc1ccccc1OCc1nc(-c2ccccc2)no1 | > 42 µM (inactive)
70 | CCOCCn1c(-c2ccc(OC)cc2)nc2ccccc21 | > 42 µM (inactive)
71 | O=C1CC(c2ccccc2)c2ccc(O)cc2O1 (stereo not given) | > 42 µM (inactive)
72 | Cc1ccccc1-c1nc2ccc(Cl)cc2c(=O)n1O | > 42 µM (inactive)
73 | O=c1[nH]c(CN2CCN(CCO)CC2)nc2ccccc12 | > 42 µM (inactive)
74 | NNC(=O)c1oc2nc(-c3ccccc3)cc(-c3ccccc3)c2c1N | > 42 µM (inactive)
75 | COc1ccccc1OCCCn1cc(C#N)c2ccccc21 | > 42 µM (inactive)

Row | SMILES | AC50
76 | O=C1c2ccccc2C(=O)N1CCCCSc1nc2ccccc2c(=O)n1CCCN1CCOCC1 | > 42 µM (inactive)
77 | CCc1ccc(N2C(=O)CC(N3CCC(C(=O)OC)CC3)C2=O)cc1 (stereo not given) | > 42 µM (inactive)
78 | COC(=O)C1CCN(S(=O)(=O)Cc2ccccc2)CC1 | > 42 µM (inactive)
79 | Cc1cc(CNC(=O)C2CCC(=O)N(Cc3ccccc3F)C2)on1 (stereo not given) | > 42 µM (inactive)
80 | CCN(CCn1cccn1)C(=O)C1CCC(=O)N(CCc2cccc(F)c2)C1 (stereo not given) | > 42 µM (inactive)
81 | COc1cccc(-n2c(SCC(=O)NC3CCCCC3)nc3n[nH]c(C)c3c2=N)c1 | > 42 µM (inactive)
82 | O=C(NCc1nc(-c2ccccc2)no1)c1cccs1 | > 42 µM (inactive)
83 | Cc1nn(CC(N)=O)c(=O)c2ccccc12 | > 42 µM (inactive)
84 | O=C(CC(c1ccccc1)c1ccccc1)NCCOCc1ccccc1 | > 42 µM (inactive)
85 | Cc1ccc(-c2nc(CS(=O)(=O)CC(=O)NC3CCCCC3C)c(C)o2)cc1 (stereo not given) | > 42 µM (inactive)
86 | CCOc1ccc(OCC)c(NC(=O)C2COc3ccccc3O2)c1 (stereo not given) | > 42 µM (inactive)
87 | CCCCN(C)C(=O)CCC(=O)Nc1ccc2nc(N3CCN(C)CC3)cc(C)c2c1 | > 42 µM (inactive)
88 | CC(C)CN(C(=O)COC(=O)c1ccc2c(c1)OCO2)c1c(N)n(Cc2ccccc2)c(=O)[nH]c1=O | > 42 µM (inactive)
89 | CC1Cc2ccccc2N1C(=O)CNc1cccc(S(=O)(=O)N2CCCC2)c1 (stereo not given) | > 42 µM (inactive)
90 | O=C(NC1CCCCCC1)C1CCN(S(=O)(=O)c2cccc3cccnc23)CC1 | > 42 µM (inactive)
91 | CCOc1ccc(CN(C)C(C)C(=O)NCc2ccccc2)cc1 (stereo not given) | > 42 µM (inactive)
92 | CCOc1ccc(-c2c(C(=O)N/N=C/c3ccncc3)nnn2-c2nonc2N)cc1 | > 42 µM (inactive)
93 | CCNc1ccc(S(=O)(=O)N(C)C)cc1NCC(=O)Nc1ccccc1Br | > 42 µM (inactive)
94 | Cc1cccc(N2CCN(C(=O)CN3C(=O)NC(C)(C)C3=O)CC2)c1C | > 42 µM (inactive)
95 | CN(C)c1ccnc2sc3c(NCC(O)CO)ncnc3c12 (stereo not given) | > 42 µM (inactive)
96 | CN(Cc1ccc(C(C)(C)C)cc1)C(=O)c1ccc2c(=O)n3c(nc2c1)CCC3 | > 42 µM (inactive)
97 | CS(=O)(=O)c1ccc(Cl)c(C(=O)O)c1 | > 42 µM (inactive)
98 | COc1ccc(OC)c(N(CC(=O)N2CCCC2)S(=O)(=O)c2ccccc2)c1 | > 42 µM (inactive)
99 | O=C(Nc1cnn(Cc2ccc(Cl)cc2)c1)c1ccc([N+](=O)[O-])cc1 | > 42 µM (inactive)
100 | c1ccc2c(c1)OCCOCCOc1ccccc1OCCOCCO2 | > 42 µM (inactive)
